Experimental data published in ChEMBL document CHEMBL1201862, “PubChem BioAssay data set” (2004).
The source made the active and inactive calls.

Legend:
[1] = biological target: Tyrosine-protein phosphatase non-receptor type 12 (Homo sapiens, UniProt Q05209); test: SAR Selectivity Analysis of small molecule inhibitors of PEST using pCAP in a fluorescence assay. [Related pubchem assays (depositor defined):AID1779, AID1784, AID2135]; assay type: functional
[2] = biological target: T1, Dual specificity protein phosphatase 3 (Homo sapiens, UniProt P51452); test: SAR VHR1 absorbance Assay for In Vitro dose response studies. [Related pubchem assays (depositor defined):AID1654, AID1661, AID1878, AID1992, AID2004]
[3] = biological target: T1, Dual specificity protein phosphatase 3; test: SAR VHR1 Fluorescent Assay for In Vitro dose response studies. [Related pubchem assays (depositor defined):AID1654, AID1661, AID1878, AID1992, AID2004, AID2070, AID2085]; assay type: functional
[4] = biological target: T2, Tyrosine-protein phosphatase non-receptor type 22 (Homo sapiens, UniProt Q9Y2R2); test: SAR LYP1 Fluorescent Assay using OMFP substrate for In Vitro dose response studies - Set 3. [Related pubchem assays (depositor defined):AID1779, AID1784, AID2140, AID2686]; assay type: functional
T2 sequence (Q9Y2R2 whole entry): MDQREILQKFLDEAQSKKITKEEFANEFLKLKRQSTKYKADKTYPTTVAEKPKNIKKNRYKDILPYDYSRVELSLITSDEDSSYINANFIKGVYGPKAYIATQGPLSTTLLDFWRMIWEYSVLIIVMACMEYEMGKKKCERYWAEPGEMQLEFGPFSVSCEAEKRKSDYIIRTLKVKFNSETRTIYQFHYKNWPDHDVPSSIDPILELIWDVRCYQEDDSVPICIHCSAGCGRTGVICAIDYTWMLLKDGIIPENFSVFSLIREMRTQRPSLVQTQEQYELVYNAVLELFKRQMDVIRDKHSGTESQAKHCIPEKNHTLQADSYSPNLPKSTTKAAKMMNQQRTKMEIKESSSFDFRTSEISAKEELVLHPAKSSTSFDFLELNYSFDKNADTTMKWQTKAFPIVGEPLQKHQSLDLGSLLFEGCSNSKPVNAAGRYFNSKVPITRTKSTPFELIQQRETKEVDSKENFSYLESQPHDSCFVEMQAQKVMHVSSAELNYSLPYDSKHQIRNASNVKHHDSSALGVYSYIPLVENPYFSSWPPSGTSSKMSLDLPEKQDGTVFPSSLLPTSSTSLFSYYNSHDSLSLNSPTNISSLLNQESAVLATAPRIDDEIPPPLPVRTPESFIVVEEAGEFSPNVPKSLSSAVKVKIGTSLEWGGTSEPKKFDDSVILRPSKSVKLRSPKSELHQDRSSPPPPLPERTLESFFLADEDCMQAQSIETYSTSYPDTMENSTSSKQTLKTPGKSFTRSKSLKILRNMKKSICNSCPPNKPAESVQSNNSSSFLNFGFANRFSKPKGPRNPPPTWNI

[5] = biological target: T1, Dual specificity protein phosphatase 3; test: MOA VHR1 Fluorescent secondary assay for identification of redox-state modulating compounds. [Related pubchem assays (depositor defined):AID1654, AID1661, AID1878, AID1957]
[6] = biological target: T3, Tyrosine-protein phosphatase non-receptor type 7 (Homo sapiens, UniProt P35236); test: redox-active compounds inhibiting HePTP phosphatase – biochemical, fluorescence, mechanism study (AID 2068); assay type: functional
T3 sequence (P35236 whole entry): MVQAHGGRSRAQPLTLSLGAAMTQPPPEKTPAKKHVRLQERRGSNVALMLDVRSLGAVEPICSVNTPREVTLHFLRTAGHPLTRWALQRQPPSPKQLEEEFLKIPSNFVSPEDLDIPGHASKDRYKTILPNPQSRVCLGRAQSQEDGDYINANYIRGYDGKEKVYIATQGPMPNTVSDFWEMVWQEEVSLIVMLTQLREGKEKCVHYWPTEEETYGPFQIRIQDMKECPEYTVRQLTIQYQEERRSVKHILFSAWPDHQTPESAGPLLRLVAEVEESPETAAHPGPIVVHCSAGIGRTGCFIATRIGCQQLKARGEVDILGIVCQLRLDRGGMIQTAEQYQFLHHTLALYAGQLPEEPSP

[7] = biological target: T3, Tyrosine-protein phosphatase non-receptor type 7; test: inhibition of hematopoietic tyrosine phosphatase HePTP – biochemical, set 2, SAR follow-up (AID 449736); assay type: functional
[8] = biological target: T2, Tyrosine-protein phosphatase non-receptor type 22; test: inhibition of lymphoid tyrosine phosphatase LYP – biochemical, pCAP fluorogenic substrate, fluorescence, set 3, SAR follow-up (AID 449727); assay type: functional
[9] = biological target: T4, Dual specificity protein phosphatase 6 (Rattus norvegicus, UniProt Q64346); assay type: functional;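 further: confirmatory in vitro dose-response testing of MKP-3 inhibition; recombinant His-tagged MKP-3 made in E. coli BL21 with OMFP substrate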
T4 sequence (Q64346 whole entry): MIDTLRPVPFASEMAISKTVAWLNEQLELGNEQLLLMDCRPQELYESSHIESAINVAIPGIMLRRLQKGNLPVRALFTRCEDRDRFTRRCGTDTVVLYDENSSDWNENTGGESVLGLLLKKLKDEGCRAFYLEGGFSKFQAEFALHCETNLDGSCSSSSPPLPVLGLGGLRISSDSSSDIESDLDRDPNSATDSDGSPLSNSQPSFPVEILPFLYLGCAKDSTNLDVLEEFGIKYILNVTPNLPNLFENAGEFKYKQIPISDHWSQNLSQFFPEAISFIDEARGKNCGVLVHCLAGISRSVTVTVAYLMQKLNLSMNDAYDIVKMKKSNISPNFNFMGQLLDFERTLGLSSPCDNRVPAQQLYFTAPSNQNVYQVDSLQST

[10] = biological target: T5, Small ubiquitin-related modifier 1 (Homo sapiens, UniProt P63165); test: SUMO1 protein interaction blockers, potency – biochemical, fluorescence polarization, uHTS hits, dose response (AID 624382); assay type: functional; conditions: read-out: IC50_Mean
[11] = biological target: T6, Low molecular weight phosphotyrosine protein phosphatase (Homo sapiens, UniProt P24666); assay type: functional; conditions: read-out: IC50_Mean
T6 sequence (P24666 whole entry): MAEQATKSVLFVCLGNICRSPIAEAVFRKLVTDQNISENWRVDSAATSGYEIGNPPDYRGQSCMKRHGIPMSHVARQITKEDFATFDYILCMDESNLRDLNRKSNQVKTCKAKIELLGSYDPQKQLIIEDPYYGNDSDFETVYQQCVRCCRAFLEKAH

[12] = biological target: T5, Small ubiquitin-related modifier 1; test: SUMO1 protein-protein binding blockers, potency – biochemical, FRET, dose response (AID 624383); assay type: functional; conditions: read-out: IC50_Mean
[13] = biological target: T6, Low molecular weight phosphotyrosine protein phosphatase; assay type: functional; conditions: read-out: IC50_Mean; remark: listed apart in the source
[14] = biological target: T2, Tyrosine-protein phosphatase non-receptor type 22; test: PTPN22 enzyme inhibitors – biochemical, fluorescence, LYP catalytic domain, selectivity assay for LMPTP inhibitor project, dose response (AID 652006); assay type: functional; conditions: read-out: IC50_Mean
[15] = biological target: Protein Rev (Human immunodeficiency virus type 1 group M subtype B (isolate WMJ22)(HIV-1), UniProt P05866); test: inhibitors of Rev protein–RRE RNA complex – biochemical, protein-RNA interaction, dose response (AID 842); set-up: species or system Human immunodeficiency virus 1
[16] = biological target: T7, Neuropeptide Y receptor type 2 (Homo sapiens, UniProt P49146); test: Fluorescence-based counterscreen for agonists of NPY-Y1: cell-based high-throughput dose response assay for agonists of NPY-Y2.; assay type: functional
T7 sequence (P49146 whole entry): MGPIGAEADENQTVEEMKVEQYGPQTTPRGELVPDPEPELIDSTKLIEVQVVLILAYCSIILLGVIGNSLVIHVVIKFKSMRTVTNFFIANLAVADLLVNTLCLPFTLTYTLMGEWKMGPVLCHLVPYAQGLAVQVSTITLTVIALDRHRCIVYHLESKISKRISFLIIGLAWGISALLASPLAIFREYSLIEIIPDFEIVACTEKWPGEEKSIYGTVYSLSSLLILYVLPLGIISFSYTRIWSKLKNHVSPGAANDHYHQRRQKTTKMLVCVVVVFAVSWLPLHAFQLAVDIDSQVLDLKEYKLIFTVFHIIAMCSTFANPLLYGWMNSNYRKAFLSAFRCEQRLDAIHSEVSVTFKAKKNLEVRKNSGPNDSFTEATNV

[17] = tested on: HEK293; test: Fluorescence-based counterscreen for potentiators or agonists of NPY-Y1: cell-based high-throughput dose response assay for inhibitors of cyclic nucleotide gated ion channel (CNGC) activity. In this assay, the parental HEK293 cell line transfected with a cyclic-nucleotide gated ion channel (CNGC)-based cAMP sensor is used to measure inhibition of isoproterenol-induced CNGC …; assay type: functional; conditions: Homo sapiens
[18] = biological target: T8, Neuropeptide Y receptor type 1 (Homo sapiens, UniProt P25929); test: Fluorescence-based dose response cell-based high-throughput screening assay for agonists of NPY-Y1. [Related pubchem assays: 1697 (Screening assay (NPY-Y1 agonists).), 1359 (Screening assay (NPY-Y2 potentiators or agonists).), 1304 (Screening assay (NPY-Y1 potentiators or agonists).), 1704 (Screening assay (CNGC inhibitors).), 1791 (Summary AID.)]; assay type: functional
T8 sequence (P25929 whole entry): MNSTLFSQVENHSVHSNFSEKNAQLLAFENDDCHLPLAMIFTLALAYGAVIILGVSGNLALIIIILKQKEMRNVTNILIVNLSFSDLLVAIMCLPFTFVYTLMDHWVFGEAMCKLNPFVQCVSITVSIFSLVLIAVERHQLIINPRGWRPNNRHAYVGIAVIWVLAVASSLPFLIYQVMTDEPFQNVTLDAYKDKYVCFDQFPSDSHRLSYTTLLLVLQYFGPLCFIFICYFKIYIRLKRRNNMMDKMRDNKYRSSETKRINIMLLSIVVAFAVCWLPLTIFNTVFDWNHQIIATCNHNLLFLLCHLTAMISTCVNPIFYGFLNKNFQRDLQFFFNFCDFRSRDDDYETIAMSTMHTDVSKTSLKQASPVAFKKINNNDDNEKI

[19] = viability of uninfected HEp-2 cells – cell-based, HTS, cytotoxicity control for RSV inhibitor project, dose response (AID 2410); assay type: functional; conditions: human respiratory syncytial virus
[20] = tested on: HEK293; test: PMA/Ionomycin induced NF-kB luciferase assay in 293- NF-kB-Luc stable cells. [Related pubchem assays: 1299, 1270, 1295, 1375, 1287, 1281, 1293, 1291, 1289, 1280, 465, 1364, 1282, 1372, 1365, 1370, 1367, 1366, 1269, 1373, 1292, 1290, 1302, 1371, 1283, 1271, 1294, 1374, 1368, 1369 ]; assay type: functional, cell-based; conditions: Homo sapiens
[21] = biological target: Luciferin 4-monooxygenase (Photinus pyralis, UniProt P08659); test: In vitro luciferase assay using purified luciferase. [Related pubchem assays: 1299, 1270, 1295, 1375, 1287, 1281, 1293, 1291, 1289, 1280, 465, 1364, 1282, 1372, 1365, 1370, 1367, 1366, 1266, 1373, 1292, 1290, 1302, 1371, 1283, 1271, 1294, 1374, 1368, 1369 ]
[22] = tested on: HEK293; test: PMA/Ionomycin-induced IL-8 production in HEK293- NF-kB-Luc stable cells. [Related pubchem assays: 1299, 1295, 1375, 1287, 1281, 1293, 1291, 1289, 1280, 465, 1364, 1282, 1372, 1365, 1367, 1366, 1266, 1269, 1373, 1292, 1290, 1302, 1371, 1283, 1271, 1294, 1374, 1368, 1369 ]; assay type: functional, cell-based; conditions: Homo sapiens
[23] = tested on: HEK293; test: Cytotoxicity assay in HEK293 cells. [Related pubchem assays (depositor defined):AID1266, AID1269, AID1270, AID1271, AID1280, AID1281, AID1282, AID1283, AID1287, AID1289, AID1290, AID1291, AID1292, AID1293, AID1294, AID1295, AID1299, AID1302, AID1364, AID1365, AID1366, AID1367, AID1369, AID1370, AID1371, AID1372, AID1373, AID1374, AID1375, AID1384 …; assay type: functional, cell-based; conditions: Homo sapiens
[24] = tested on: HEK293; test: TNF Induced NF-kB Luciferase in 293-NF-kB-Luc Stable Cells. [Related pubchem assays: 1266, 1299, 1269, 1373, 1292, 1290, 1302, 1371, 1283, 1270, 1295, 1271, 1375, 1294, 1374, 1281, 1293, 1291, 1289, 1280, 465, 1368, 1364, 1282, 1372, 1365, 1369, 1370, 1367, 1366 ]; assay type: functional, cell-based; conditions: Homo sapiens
[25] = tested on: Vero; test: cells; assay type: functional, cell-based; conditions: Chlorocebus sabaeus
[26] = tested on: Vero; test: cells; assay type: functional; conditions: Chlorocebus sabaeus
[27] = cells

T1 sequence (P51452 whole entry): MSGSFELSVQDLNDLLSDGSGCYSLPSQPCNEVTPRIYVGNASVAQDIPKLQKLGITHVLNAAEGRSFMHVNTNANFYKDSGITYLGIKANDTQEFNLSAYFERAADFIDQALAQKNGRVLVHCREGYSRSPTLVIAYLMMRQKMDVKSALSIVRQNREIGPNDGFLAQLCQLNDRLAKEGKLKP
T5 sequence (P63165 whole entry): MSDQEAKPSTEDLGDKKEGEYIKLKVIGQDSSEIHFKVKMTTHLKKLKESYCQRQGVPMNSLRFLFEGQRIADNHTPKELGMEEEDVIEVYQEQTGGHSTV
Sequence of Protein Rev (P05866 whole entry): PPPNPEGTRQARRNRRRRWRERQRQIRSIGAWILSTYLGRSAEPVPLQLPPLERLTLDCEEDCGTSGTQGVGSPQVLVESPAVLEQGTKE
Sequence of Luciferin 4-monooxygenase (P08659 whole entry): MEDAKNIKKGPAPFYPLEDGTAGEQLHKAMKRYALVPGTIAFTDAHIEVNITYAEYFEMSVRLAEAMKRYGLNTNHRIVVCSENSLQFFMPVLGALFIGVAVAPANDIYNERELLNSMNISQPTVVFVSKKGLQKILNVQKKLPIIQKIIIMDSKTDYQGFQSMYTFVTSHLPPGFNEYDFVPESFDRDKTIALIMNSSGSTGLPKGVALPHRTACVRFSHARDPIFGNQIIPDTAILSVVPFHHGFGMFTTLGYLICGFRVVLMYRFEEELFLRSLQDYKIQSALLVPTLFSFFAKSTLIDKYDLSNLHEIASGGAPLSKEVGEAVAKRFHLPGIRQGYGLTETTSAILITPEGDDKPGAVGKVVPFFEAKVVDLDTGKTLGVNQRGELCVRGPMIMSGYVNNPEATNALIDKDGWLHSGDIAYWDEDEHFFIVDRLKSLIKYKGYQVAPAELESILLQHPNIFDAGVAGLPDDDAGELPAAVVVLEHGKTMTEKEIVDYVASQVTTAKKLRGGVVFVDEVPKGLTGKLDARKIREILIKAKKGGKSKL
Sequence of Tyrosine-protein phosphatase non-receptor type 12 (Q05209 whole entry): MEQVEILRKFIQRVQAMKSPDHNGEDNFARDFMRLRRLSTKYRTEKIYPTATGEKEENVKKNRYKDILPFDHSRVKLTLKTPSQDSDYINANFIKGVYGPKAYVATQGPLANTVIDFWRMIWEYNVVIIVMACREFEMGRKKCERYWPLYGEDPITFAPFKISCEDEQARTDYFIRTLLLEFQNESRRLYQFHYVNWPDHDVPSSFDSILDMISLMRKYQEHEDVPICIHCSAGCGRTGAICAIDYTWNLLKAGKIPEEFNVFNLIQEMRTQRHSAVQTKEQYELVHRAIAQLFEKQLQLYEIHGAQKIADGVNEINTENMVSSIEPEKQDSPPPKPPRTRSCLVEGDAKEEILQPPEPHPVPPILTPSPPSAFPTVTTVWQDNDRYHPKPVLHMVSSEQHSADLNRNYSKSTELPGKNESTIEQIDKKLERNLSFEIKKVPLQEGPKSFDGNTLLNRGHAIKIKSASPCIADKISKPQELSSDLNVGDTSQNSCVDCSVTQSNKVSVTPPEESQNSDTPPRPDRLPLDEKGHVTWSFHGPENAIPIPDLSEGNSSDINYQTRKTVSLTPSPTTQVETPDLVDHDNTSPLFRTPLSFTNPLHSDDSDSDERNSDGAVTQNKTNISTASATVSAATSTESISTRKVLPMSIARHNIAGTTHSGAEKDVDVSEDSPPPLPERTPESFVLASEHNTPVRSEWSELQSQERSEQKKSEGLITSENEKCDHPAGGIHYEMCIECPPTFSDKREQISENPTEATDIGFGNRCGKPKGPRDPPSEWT

CCOC(=O)C1=C(C)N=c2sc(=Cc3ccc(OCC(=O)O)cc3)c(=O)n2C1c1ccc(SC)cc1 (configuration not stated)
IC50 [1]: 2.52 µM (active) | IC50 [2]: 3.14 µM (active) | IC50 [3]: 7.7 µM (active) | IC50 [4]: 5.06 µM (active) | IC50 [5]: 2.01 µM (active) | IC50 [6]: 0.537 µM (active) | IC50 [7]: 0.684 µM (active) | IC50 [8]: 5.14 µM (active) | IC50 [9]: 18.9 µM (active) | IC50 [10]: > 66.6 µM (inactive) | IC50 [11]: 52.8 µM (inactive) | IC50 [12]: 9.68 µM (active) | IC50 [13]: 14.6 µM (active) | IC50 [14]: 16.2 µM (active)

COc1ccc(CCNC(C)CCc2ccc(OC)cc2)cc1 (configuration not stated)
IC50 [15]: > 79.4 µM (not active)

Oc1ccccc1Cn1c(-c2ccccc2O)nc2ccccc21
EC50 [16]: 24.7 µM (not active) | IC50 [17]: 14.3 µM (not active) | EC50 [18]: 15.6 µM (not active)

Cc1oc(-c2ccccc2Cl)nc1CSCC(=O)N1CCCC1
CC50 [19]: 16 µM (active) | EC50 [20]: < 4 µM (active) | EC50 [21]: > 8 µM (not active) | EC50 [22]: 11.1 µM (not active) | EC50 [23]: > 8 µM (inactive) | EC50 [24]: > 8 µM (not active) | IC50 [25]: 2.28 µM (active) | CC50 [26]: > 25 µM (active) | IC50 [27]: 11 µM (active)
